According to ChEMBL document CHEMBL6078724, “Discovery of the first examples of right open reading frame kinase 2 (RIOK2) molecular glue degraders” (Eur J Med Chem, 2025):
Each block holds one molecule with its values, some of them ahead of it. The source made the active and inactive calls. No cut-off for these calls is given here.

Key:
[1] = target: T1, E3 ubiquitin-protein ligase RNF126/Serine/threonine-protein kinase RIO2 (Homo sapiens, UniProt Q9BVS4+Q9BV68); experiment: Molecular glue degradation activity at RNF126/RIOK2 in human MOLT-4 cells assessed as induction protein degradation incubated for 12 hrs by immunoblot analysis relative to control; format: cell-based
Target sequence in this assay (Q9BV68 2-311 partner limits assumed): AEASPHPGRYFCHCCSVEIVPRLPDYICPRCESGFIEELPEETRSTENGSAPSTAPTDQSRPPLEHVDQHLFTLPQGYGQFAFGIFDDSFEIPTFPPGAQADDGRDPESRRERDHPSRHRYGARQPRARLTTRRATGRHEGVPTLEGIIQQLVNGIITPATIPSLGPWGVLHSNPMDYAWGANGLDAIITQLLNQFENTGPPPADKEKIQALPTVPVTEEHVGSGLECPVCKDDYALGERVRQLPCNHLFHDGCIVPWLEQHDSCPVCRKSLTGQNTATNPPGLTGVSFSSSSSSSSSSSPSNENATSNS
Target sequence in this assay (Q9BVS4 whole entry): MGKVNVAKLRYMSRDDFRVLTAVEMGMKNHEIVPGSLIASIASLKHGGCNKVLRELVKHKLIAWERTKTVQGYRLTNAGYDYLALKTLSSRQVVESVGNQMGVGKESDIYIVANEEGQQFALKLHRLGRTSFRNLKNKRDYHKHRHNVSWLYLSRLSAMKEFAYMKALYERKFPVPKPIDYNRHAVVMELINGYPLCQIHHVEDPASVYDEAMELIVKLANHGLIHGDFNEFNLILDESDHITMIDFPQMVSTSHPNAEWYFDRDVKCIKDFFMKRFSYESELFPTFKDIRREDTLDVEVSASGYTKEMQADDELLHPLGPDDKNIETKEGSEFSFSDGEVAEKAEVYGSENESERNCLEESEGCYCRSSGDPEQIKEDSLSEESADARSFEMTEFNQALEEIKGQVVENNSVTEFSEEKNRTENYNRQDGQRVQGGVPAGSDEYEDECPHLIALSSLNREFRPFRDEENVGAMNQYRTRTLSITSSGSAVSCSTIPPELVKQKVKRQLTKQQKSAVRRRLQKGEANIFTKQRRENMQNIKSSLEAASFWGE

[2] = target: T1, E3 ubiquitin-protein ligase RNF126/Serine/threonine-protein kinase RIO2; experiment: Molecular glue degradation activity at RNF126/RIOK2 in human MOLT-4 cells assessed as induction protein degradation incubated for 12 hrs by immunoblot analysis; format: cell-based
Target sequence in this assay (Q9BVS4 whole entry): as above
Target sequence in this assay (Q9BV68 whole entry): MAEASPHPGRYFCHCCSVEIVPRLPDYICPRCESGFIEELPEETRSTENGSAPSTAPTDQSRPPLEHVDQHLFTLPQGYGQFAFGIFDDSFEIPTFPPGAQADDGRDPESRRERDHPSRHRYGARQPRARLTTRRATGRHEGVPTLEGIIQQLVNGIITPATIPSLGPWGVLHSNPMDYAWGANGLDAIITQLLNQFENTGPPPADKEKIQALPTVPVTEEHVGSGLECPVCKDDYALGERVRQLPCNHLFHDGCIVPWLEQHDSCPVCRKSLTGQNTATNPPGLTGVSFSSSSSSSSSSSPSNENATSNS

[3] = target: Serine/threonine-protein kinase RIO2 (Homo sapiens, UniProt Q9BVS4); experiment: Binding affinity to RIOK2 (unknown origin) assessed as dissociation constant
Serine/threonine-protein kinase RIO2, sequence (Q9BVS4 whole entry): as the sequence (Q9BVS4 whole entry) above

MOLT-4 [4] = experiment: Induction of cell cycle arrest in human MOLT-4 cells assessed as accumulation at G2/M phase at 900 nM incubated for 24 hrs by PI staining based flow cytometry relative to control; format: functional
U-937 = experiment: Antiproliferative activity against human U-937 cells incubated for 72 hrs by CCK8 assay; format: functional, cell-based; conditions: U-937, 72 h
[5] = Antiproliferative activity against human MRC5 cells incubated for 72 hrs by CCK8 assay; format: toxicity, cell-based
HeLa = experiment: Antiproliferative activity against human HeLa cells incubated for 72 hrs by CCK8 assay; format: functional, cell-based
[6] = Antiproliferative activity against HEK293 cells incubated for 72 hrs by CCK8 assay; format: toxicity, cell-based; conditions: human
MOLT-4 [7] = experiment: Antiproliferative activity against human MOLT-4 cells incubated for 72 hrs by CCK8 assay; format: functional, cell-based; conditions: MOLT-4, 72 h
OCI-Ly3 = experiment: Antiproliferative activity against human OCILY3 cells incubated for 72 hrs by CCK8 assay; format: functional, cell-based; conditions: OCI-Ly3, 72 h
ASPC1 = experiment: Antiproliferative activity against human ASPC1 cells incubated for 72 hrs by CCK8 assay; format: functional, cell-based; conditions: ASPC1, 72 h
MOLT-4 [8] = experiment: Induction of apoptosis in human MOLT-4 cells at 900 nM incubated for 48 hrs by Annexin V-FITC/PI staining based flow cytometry relative to control; format: functional
A549 = experiment: Antiproliferative activity against human A549 cells incubated for 72 hrs by CCK8 assay; format: functional, cell-based; conditions: A549, 72 h
K562 = experiment: Antiproliferative activity against human K562 cells incubated for 72 hrs by CCK8 assay; format: functional, cell-based; conditions: K562, 72 h
HL-60 = experiment: Antiproliferative activity against human HL-60 cells incubated for 72 hrs by CCK8 assay; format: functional, cell-based; conditions: HL-60, 72 h
[9] = target: T1, E3 ubiquitin-protein ligase RNF126/Serine/threonine-protein kinase RIO2; experiment: Molecular glue degradation activity at RNF126/RIOK2 in human MOLT-4 cells assessed as decrease in mTOR level at 500 nM incubated for 12 hrs by immunoblot analysis; format: cell-based
Target sequence in this assay (Q9BV68 2-311 partner limits assumed): as the sequence (Q9BV68 2-311 partner limits assumed) above
Target sequence in this assay (Q9BVS4 whole entry): as the sequence (Q9BVS4 whole entry) above

[10] = target: T1, E3 ubiquitin-protein ligase RNF126/Serine/threonine-protein kinase RIO2; experiment: Molecular glue degradation activity at RNF126/RIOK2 in human MOLT-4 cells assessed as decrease in AKT level at 500 nM incubated for 12 hrs by immunoblot analysis; format: cell-based
Target sequence in this assay (Q9BV68 2-311 partner limits assumed): as the sequence (Q9BV68 2-311 partner limits assumed) above
Target sequence in this assay (Q9BVS4 whole entry): as the sequence (Q9BVS4 whole entry) above

[11] = Antiproliferative activity against mouse NIH3T3 cells incubated for 72 hrs by CCK8 assay; format: toxicity, cell-based

Compound: COc1ccc(-c2ccc3[nH]c(=O)c4nnn(-c5ccc(N6CCN(C(=O)/C=C/C(=O)c7ccc(OC(F)F)cc7)CC6)c(C(F)(F)F)c5)c4c3c2)cn1
- Emax [1]: 68.9%
- DC50 [2]: 1180 nM

Compound: COc1ccc(-c2ccc3[nH]c(=O)c4nnn(-c5ccc(N6CCN(C(=O)C7=CCCC7)CC6)c(C(F)(F)F)c5)c4c3c2)cn1
- Emax [1]: 82.2%
- DC50 [2]: 2140 nM

Compound: COc1ccc(/C=C/C(=O)N2CCN(c3ccc(-n4nnc5c(=O)[nH]c6ccc(-c7ccc(OC)nc7)cc6c54)cc3C(F)(F)F)CC2)cc1
- DC50 [2]: > 10000 nM

Compound: COc1ccc(-c2ccc3[nH]c(=O)c4nnn(-c5ccc(N6CCN(C(=O)/C=C/C(=O)c7ccc(C(F)(F)F)cc7)CC6)c(C(F)(F)F)c5)c4c3c2)cn1
- Emax [1]: 84.6%
- DC50 [2]: 1030 nM

Compound: COc1ccc2cc([C@H](C)C(=O)Nc3cc(C)ccn3)ccc2c1
- Kd [3]: 520 nM

Compound: COc1ccc(C(=O)/C=C/C(=O)N2CCN(c3ccc(-n4nnc5c(=O)[nH]c6ccc(-c7ccc(OC)nc7)cc6c54)cc3C(F)(F)F)CC2)cc1
- Emax [1]: 60.1%
- DC50 [2]: 690 nM

Compound: COc1ccc(-c2ccc3[nH]c(=O)c4nnn(-c5ccc(N6CCN(C(=O)CCC(=O)c7ccc(F)cc7)CC6)c(C(F)(F)F)c5)c4c3c2)cn1
- DC50 [2]: > 10000 nM

Compound: COc1ccc(-c2ccc3[nH]c(=O)c4nnn(-c5ccc(N6CCN(C(=O)/C=C/C(=O)c7ccc(OC(C)C)cc7)CC6)c(C(F)(F)F)c5)c4c3c2)cn1
- Emax [1]: 66.1%
- DC50 [2]: 1070 nM

Compound: COc1ccc(-c2ccc3[nH]c(=O)c4nnn(-c5ccc(N6CCN(C(=O)/C=C/C(=O)c7ccccc7)CC6)c(C(F)(F)F)c5)c4c3c2)cn1
- Emax [1]: 82.2%
- DC50 [2]: 1100 nM

Compound: COc1ccc(-c2ccc3[nH]c(=O)c4nnn(-c5ccc(N6CCN(C(=O)/C=C/C(=O)c7ccccc7F)CC6)c(C(F)(F)F)c5)c4c3c2)cn1
- Emax [1]: 62.8%
- DC50 [2]: 3650 nM

Compound: COc1cccc(C(=O)/C=C/C(=O)N2CCN(c3ccc(-n4nnc5c(=O)[nH]c6ccc(-c7ccc(OC)nc7)cc6c54)cc3C(F)(F)F)CC2)c1
- Emax [1]: 68.4%
- DC50 [2]: 1050 nM

Compound: C=CC(=O)N1CCN(c2ccc(-n3nnc4c(=O)[nH]c5ccc(-c6ccc(OC)nc6)cc5c43)cc2C(F)(F)F)CC1
- Emax [1]: 81.4%
- DC50 [2]: 4310 nM

Continued, in another order:

- Emax [1]: 72.3%
- DC50 [2]: 1470 nM
Compound: COc1ccc(-c2ccc3[nH]c(=O)c4nnn(-c5ccc(N6CCN(C(=O)/C=C/C(=O)c7ccc(C)cc7)CC6)c(C(F)(F)F)c5)c4c3c2)cn1

- Emax [1]: 70.6%
- DC50 [2]: 1280 nM
Compound: CCOc1ccc(C(=O)/C=C/C(=O)N2CCN(c3ccc(-n4nnc5c(=O)[nH]c6ccc(-c7ccc(OC)nc7)cc6c54)cc3C(F)(F)F)CC2)cc1

- Emax [1]: 74.1%
- DC50 [2]: 790 nM
Compound: COc1ccc(-c2ccc3[nH]c(=O)c4nnn(-c5ccc(N6CCN(C(=O)/C=C/C(=O)c7ccccc7OC)CC6)c(C(F)(F)F)c5)c4c3c2)cn1

- Emax [1]: 75.1%
- DC50 [2]: 1540 nM
Compound: COc1ccc(-c2ccc3[nH]c(=O)c4nnn(-c5ccc(N6CCN(C(=O)/C=C/C(=O)c7ccc(Cl)cc7)CC6)c(C(F)(F)F)c5)c4c3c2)cn1

- Emax [1]: 77.3%
- DC50 [2]: 980 nM
Compound: COc1ccc(-c2ccc3[nH]c(=O)c4nnn(-c5ccc(N6CCN(C(=O)/C=C/C(=O)c7ccc(F)c(F)c7)CC6)c(C(F)(F)F)c5)c4c3c2)cn1

- DC50 [2]: > 10000 nM
Compound: COc1ccc(-c2ccc3[nH]c(=O)c4nnn(-c5ccc(N6CCN(C(=O)/C=C/c7ccc(C(F)(F)F)cc7)CC6)c(C(F)(F)F)c5)c4c3c2)cn1

- Emax [1]: 70.1%
- DC50 [2]: 2180 nM
Compound: COc1ccc(-c2ccc3[nH]c(=O)c4nnn(-c5ccc(N6CCN(C(=O)/C=C/C(=O)c7ccc(Br)cc7)CC6)c(C(F)(F)F)c5)c4c3c2)cn1

- Emax [1]: 68.1%
- DC50 [2]: 3800 nM
Compound: COc1ccc(-c2ccc3[nH]c(=O)c4nnn(-c5ccc(N6CCN(C(=O)/C=C/C(=O)c7ccc([N+](=O)[O-])cc7)CC6)c(C(F)(F)F)c5)c4c3c2)cn1

- Emax [1]: 84.5%
- DC50 [2]: 1750 nM
Compound: COc1ccc(-c2ccc3[nH]c(=O)c4nnn(-c5ccc(N6CCN(C(=O)/C=C/C(=O)c7ccc(OC(F)(F)F)cc7)CC6)c(C(F)(F)F)c5)c4c3c2)cn1

- IC50 (U-937): 1840 nM
- IC50 (HeLa): 1230 nM
- IC50 (MOLT-4 [7]): 1260 nM
- IC50 (OCI-Ly3): 520 nM
- IC50 (ASPC1): 2430 nM
- IC50 (A549): 2550 nM
- IC50 (K562): 2030 nM
- IC50 (HL-60): 1210 nM
- Activity [9]: inactive
- Activity [10]: inactive
Compound: COc1ccc(-c2ccc3[nH]c(=O)c4nnn(-c5ccc(N6CCNCC6)c(C(F)(F)F)c5)c4c3c2)cn1
- Activity (MOLT-4 [4]): 29.84%
- IC50 at 72 h [5]: 1310 nM
- IC50 at 72 h [6]: 1940 nM
- Activity (MOLT-4 [8]): 8.03%
- IC50 at 72 h [11]: 2840 nM

- Emax [1]: 65%
- DC50 [2]: 1950 nM
Compound: COc1ccc(-c2ccc3[nH]c(=O)c4nnn(-c5ccc(N6CCN(C(=O)/C=C/C(=O)c7ccc(OC)c(OC)c7)CC6)c(C(F)(F)F)c5)c4c3c2)cn1
